In ChEMBL document CHEMBL4411299, “A class of novel tubulin polymerization inhibitors exert effective anti-tumor activity via mitotic catastrophe” (Eur J Med Chem, 2019):
The source made the active and inactive calls. The calls are words filed in the database; no cut-off is given here.

What was measured:
[1] = MRT (0 to infinity) in male Sprague-Dawley rat at 1.5 mg/kg, iv administered as single dose by LC-MS/MS analysis; format: ADME, organism-based; settings: in vivo
[2] = Half life in male Sprague-Dawley rat at 1.5 mg/kg, iv administered as single dose by LC-MS/MS analysis; format: ADME, organism-based; settings: in vivo
Tubulin (Homo sapiens) = Tubulin (Homo sapiens) (UniProt P68371+Q9H4B7+P0DPH7+P68366+Q13509+Q71U36+P04350+Q3ZCM7+P07437+P68363+Q9BQE3+Q6PEY2+Q13885+Q9BVA1+Q9BUF5); assay: Inhibition of tubulin polymerization in human HeLa cells assessed as induction of multinuclear giant cells at 0.05 after 12 hrs by DAPI staining-based confocal fluorescence microscopic analysis; format: cell-based
[3] = MRT (0 to t) in female Sprague-Dawley rat at 1.5 mg/kg, iv administered as single dose by LC-MS/MS analysis; format: ADME, organism-based; settings: in vivo
HeLa [4] = assay: Induction of apoptosis in human HeLa cells assessed as late apoptotic cells at 0.05 uM after 24 hrs by Annexin V-FITC/propidium iodide staining-based flow cytometric analysis (reference value: 3.51%); format: functional
[5] = Half life in human liver microsomes at 5 uM in presence of NADPH regenerating system by LC-MS/MS analysis; format: ADME, Microsome
[6] = Cmax in female Sprague-Dawley rat at 1.5 mg/kg, iv administered as single dose by LC-MS/MS analysis; format: ADME, organism-based; parameters: dose 1.5 mg/kg, route intravenous; settings: in vivo
HeLa [7] = assay: Induction of ROS generation in human HeLa cells at 0.02 to 0.2 uM after 12 hrs by DCFH-DA staining-based flow cytometric analysis; format: functional, cell-based
[8] = AUC (0 to infinity) in Sprague-Dawley rat at 1.5 mg/kg, iv administered as single dose by LC-MS/MS analysis; format: ADME, organism-based; parameters: dose 1.5 mg/kg, route intravenous, time infinity; settings: in vivo
[9] = MRT (0 to t) in male Sprague-Dawley rat at 1.5 mg/kg, iv administered as single dose by LC-MS/MS analysis; format: ADME, organism-based; settings: in vivo
[10] = AUC (0 to t) in Sprague-Dawley rat at 1.5 mg/kg, iv administered as single dose by LC-MS/MS analysis; format: ADME, organism-based; settings: in vivo
HeLa [11] = assay: Cell cycle arrest in human HeLa cells assessed as reduction in accumulation of cells at S phase up to 0.4 uM after 24 hrs by propidium iodide staining-based flow cytometric analysis; format: functional
Tubulin = Tubulin (Sus scrofa, UniProt P02554+P02550); assay: (§1) Inhibition of porcine brain tubulin polymerization
Tubulin (Sus scrofa) = Tubulin (Sus scrofa) (UniProt P02554+P02550); assay: as §1
HeLa [12] = assay: Antitumor activity against human HeLa cells xenografted in nude mouse assessed as tumor growth inhibition at 20 mg/kg, iv administered every other day up to 20 days relative to control; format: functional; settings: 480 h, read-out: TGI
[13] = Toxicity in mouse xenografted with human HeLa cells assessed as change in liver weight at 5 to 20 mg/kg, iv administered every other day up to 20 days; format: organism-based; settings: in vivo, 480 h
[14] = Half life in female Sprague-Dawley rat at 1.5 mg/kg, iv administered as single dose by LC-MS/MS analysis; format: ADME, organism-based; settings: in vivo
[15] = AUC (0 to t) in female Sprague-Dawley rat at 1.5 mg/kg, iv administered as single dose by LC-MS/MS analysis; format: ADME, organism-based; settings: in vivo
HeLa [16] = assay: Antitumor activity against human HeLa cells xenografted in nude mouse assessed as tumor growth inhibition administered intravenously every other day up to 20 days; format: functional, cell-based
HeLa [17] = assay: Inhibition of colony formation in human HeLa cells after 2 weeks by crystal violet staining-based assay; format: functional, cell-based
HeLa [18] = assay: Antiproliferative activity against human HeLa cells after 48 hrs by MTT assay; format: functional
HeLa [19] = assay: Induction of apoptosis in human HeLa cells assessed as increase in cleaved PARP level at 0.02 to 0.1 uM after 24 hrs by Western blot analysis; format: functional, cell-based
HeLa [20] = assay: Induction of apoptosis in human HeLa cells assessed as late apoptotic cells at 0.1 uM after 24 hrs by Annexin V-FITC/propidium iodide staining-based flow cytometric analysis (reference value: 3.51%); format: functional
[21] = Stability in human liver microsomes assessed as parent compound remaining at 5 uM after 2 hrs in presence of NADPH regenerating system by LC-MS/MS analysis; format: ADME, Microsome
[22] = AUC (0 to infinity) in male Sprague-Dawley rat at 1.5 mg/kg, iv administered as single dose by LC-MS/MS analysis; format: ADME, organism-based; parameters: dose 1.5 mg/kg, time infinity, route intravenous; settings: in vivo
[23] = Clearance in male Sprague-Dawley rat at 1.5 mg/kg, iv administered as single dose by LC-MS/MS analysis; format: ADME, organism-based; settings: in vivo

Tubulin (Sus scrofa), sequence (P02550 whole entry, looked up): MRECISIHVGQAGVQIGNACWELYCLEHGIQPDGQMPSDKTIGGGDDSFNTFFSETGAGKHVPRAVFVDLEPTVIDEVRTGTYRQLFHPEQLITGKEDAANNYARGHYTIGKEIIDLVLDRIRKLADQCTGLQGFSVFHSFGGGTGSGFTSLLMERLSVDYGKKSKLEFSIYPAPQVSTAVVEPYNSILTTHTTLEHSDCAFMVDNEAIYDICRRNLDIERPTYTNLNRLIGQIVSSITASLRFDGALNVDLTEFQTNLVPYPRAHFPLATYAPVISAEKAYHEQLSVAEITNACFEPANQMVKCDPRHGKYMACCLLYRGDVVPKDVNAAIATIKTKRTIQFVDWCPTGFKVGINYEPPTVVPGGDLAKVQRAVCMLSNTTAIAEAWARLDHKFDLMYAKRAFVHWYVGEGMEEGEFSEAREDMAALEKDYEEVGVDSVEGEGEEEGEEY
Tubulin (Sus scrofa), sequence (P02554 whole entry, looked up): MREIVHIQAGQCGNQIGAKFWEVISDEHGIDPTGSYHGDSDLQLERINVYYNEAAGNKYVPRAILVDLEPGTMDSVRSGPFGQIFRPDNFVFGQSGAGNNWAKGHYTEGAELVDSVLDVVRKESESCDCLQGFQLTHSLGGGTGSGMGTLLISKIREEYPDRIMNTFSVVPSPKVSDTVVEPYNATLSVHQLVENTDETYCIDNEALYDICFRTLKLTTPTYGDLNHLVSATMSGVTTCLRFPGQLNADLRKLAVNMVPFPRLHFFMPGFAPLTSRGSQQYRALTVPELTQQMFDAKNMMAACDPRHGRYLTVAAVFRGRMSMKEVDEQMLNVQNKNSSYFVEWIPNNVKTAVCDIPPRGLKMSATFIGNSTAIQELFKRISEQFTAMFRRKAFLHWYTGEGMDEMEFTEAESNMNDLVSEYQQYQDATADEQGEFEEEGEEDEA

In the case of COC(=O)N1N=C(c2cccc(C)c2)CC1c1cc(OC)c(OC)c(OC)c1 (stereo unspecified), the MRT inf [1] is reported as 60 min, the half-life [2] is reported as 52.2 min and the Activity (Tubulin (Homo sapiens)) is reported as “Active”. The MRT last [3] was 57.6 min, the Activity (HeLa [4]) was 4.95% and the t1/2 [5] was 170.73 min. For the same compound, the Cmax [6] was 531 ng/mL, the Activity (HeLa [7]) was “Active” and the AUC(0-inf) [8] was 414 ng·h/mL. The MRT last [9] was 51 min, the AUC(0-t) [10] was 397 ng·h/mL and the Activity (HeLa [11]) was “Active”. The IC50 (Tubulin) was 1490 nM, the inhibition (Tubulin (Sus scrofa)) was “Dose-dependent effect” and the inhibition in vivo at 20 mg/kg (HeLa [12]) was 72.9%. For the same compound, the Activity [13] was “Non-Toxic”, the half-life [14] was 55.8 min and the AUC(0-t) [15] was 319 ng·h/mL. The TGI (HeLa [16]) was “Dose-dependent effect”, the inhibition (HeLa [17]) was “Dose-dependent effect” and the GI50 (HeLa [18]) was 50 nM. For the same compound, the Activity (HeLa [19]) was “Active”, the Activity (HeLa [20]) was 6.03% and the Stability [21] was 31.1%. The AUC(0-inf) [22] was 491 ng·h/mL and the clearance [23] was 51 mL/min/kg.
